What was measured:
free iron = experiment: Free iron (Phen Green SK); format: cell-based, rat; details: in vitro cultured cell
Method: Isolated mucosal cells from both control and indomethacin-treated cultured gastric mucosa were used for free iron localization using Phen Green SK, an iron-sensitive fluorescence probe following the protocol as described in the product catalogue (Maity, P.; et al. J. Biol. Chem. 284:3058-3068; 2009). Cells were first incubated with Phen Green SK (20 μm) for 15 min at 37° C. in the dark. After the incubation, cells were washed with HBSS and used for fluorescence microscopy (Leica, DM-2500, Leica Microsystems). Staining of pheen Green SK was visualized using green filter.

[1] = Ferric reducing antioxidant power (FRAP) assay
Method: The antioxidant property of different tryptamine derivatives were assessed and compared with the known antioxidants for potency. […] The FRAP assay is based on the measurement of the ability of the substance to reduce Fe^3+ to Fe^2+, greater the reducing ability greater the anti oxidant property. Antioxidants reduce Fe^3+-TPTZ in to blue colored Fe^2+-TPTZ complex, which results in an increase in the absorbance at 595 nm giving a FRAP value. […] Absorbance changes at different time intervals (FIG. 6) as well as at different concentrations (FIG. 7) at time 6 min in the presence of different compounds at 595 nm were measured. FRAP values at 6 min and 65 min were calculated from different tryptamine derivatives and some known antioxidant (Table 1). […] DPPH assay based on the DPPH free radicals scavenging power of the antioxidant molecules. Higher the scavenging power higher will be the antioxidant property.
The assay was performed in a 96-well microplate. FRAP reagent was prepared by mixing of 10 ml acetate buffer (200 mM, pH-3.6), 1 ml of 2,4,6-tris(2-pyridyl)-s-triazine (TPTZ) solution (10 mM in 40 mM HCl) and 1 ml of ferric chloride solution (20 mM) in distilled water. For 1 h the mixture was kept in a water bath at 37° C. In 96-well microplates, 25 μL of the compounds under investigation dissolved (in methanol, some compound dissolved in water) at different concentrations in the range 1-25 μM was placed in triplicate and freshly prepared FRAP solution (175 μL) was added to this sample. A micro plate reader monitored the absorbance at 595 nm at different time intervals for up to 150 min. The absorbance of a mixture 175 μL TRAP sol and 25 μL methanol or water was taken which was subtracted from the absorbance of the samples at each time interval to calculate the absorbance change (ΔA). The FRAP value at time interval t (FRAP valuet) was calculated according to the formula: FRAP valuet(M)=(ΔatFl/ΔatFe^2+)×10^−5 Where ΔatFl is the absorbance change after the time interval t (6 and 65 min) relative to the tested flavonoid at the concentration of 10 μM and ΔatFe^2+ is the absorbance change at the same time interval relative to ferrous sulfate at the same concentration (Pal, C; et al. Free Radic Biol Med, 49(2), 258-267, 2010, Firuzi, O; et al. Biochim. Biophys. Acta 1721:174-184; 2005).

[2] = system: diclofenac induced gastric mucosal injury; experiment: Diclofenac-induced gastric mucosal injury (ulcer index); format: in vivo, Sprague-Dwaley rats; details: diclofenac 75 mg kg^−1 oral
Method: Sprague-Dwaley rats (180-220 gm) were used for this study. Each group (control or experimental) of animals was maintained at 24±2° C. with 12 hrs lights and dark cycle. The animals were fasted for 24 hrs before the start of experiments. They were provided with water ad libitum to avoid food-induced increased acid secretion and its effect on gastric lesions. Gastric mucosal ulcer was developed by indomethacin as described (Pal, C; et al. Free Radic Biol Med, 49(2), 258-267; 2010, Biswas, K.; et al. J. Biol. Chem. 278:10993-11001; 2003, Bandyopadhyay, U.; et al. Life Sci. 71:2845-2865; 2002). Briefly, all the animals were divided into control, indomethacin and test compound group. Oral administration of indomethacin at a dose of 48 mg kg^−1 b.w was given to the fasted animals to induce gastric ulcer. In the drug-pretreated groups, the animals were given drug (50, 20, 10, 5, 3, 1 mg kg^−1 b.w.) intraperitoneally 30 min prior to ulcer induction with indomethacin. Control group received vehicle only but no indomethacin. After 4 hrs of indomethacin treatment, the animals were sacrificed under proper euthanasia and stomachs were collected. The mucosal injury was scored as ulcer index as follows: 0=no pathology; 1=one pinhead ulcer. The sum of the total scores divided by the number of animals gave the ulcer index. All the in vivo studies were done in accordance with the institute animal ethical committee guidelines. To see the effect of SEGA on diclofenac induced gastric mucosal injury, gastric mucosal damage was developed by the oral administration of diclofenac (75 mg kg^−1) and the rest of the experiment was carried out in a similar way as described for indomethacin. Diclofenac produced pinhead ulcer like indomethacin and the mucosal injury was scored as ulcer index as described above. Ethanol-induced gastric mucosal injury was developed with oral administration of 1 ml of 50% ethanol (Banerjee, R. K. (2002) Life Sci 71, 2845-2865) and after 4 hrs the animals were sacrificed and cold-restrain stress induced mucosal injury was developed by immobilizing the animals at 4° C. for 3.5 hrs (Banerjee, R. K. (2002) Life Sci 71, 2845-2865, (2003) J Biol Chem 278, 10993-11001).

[3] = system: intra mitochondrial superoxide; experiment: Intra mitochondrial superoxide (MitoSOX); format: cell-based, rat; details: indomethacin-treated cultured gastric mucosal cells; pretreatment
Method: Isolated mucosal cells from both control and indomethacin-treated cultured gastric mucosa were used for detection of intra mitochondrial superoxide using MitoSOX, an superoxide-sensitive fluorescence probe following the protocol as described in the product catalogue (Maity, P.; et al. J. Biol. Chem. 284:3058-3068; 2009). Cells were stained with the respective fluorescent probe in HB SS (pH 7.4) and incubated for 15 min at 37° C. in the dark as described in the manufacture's protocols. After the incubation, cells were washed with HBSS three times and continued for fluorescence microscopy (Leica, DM-2500, Leica Microsystems). Staining of MitoSOX was visualized using Red filter.

## O=C(NCCc1c[nH]c2ccc(O)cc12)c1cc(O)c(O)c(O)c1 [Compound 3a, 3,4,5-trihydroxy-N-(2-(5-hydroxy-1H-indol-3-yl)ethyl)benzamide]
Free iron
  intramitochondrial iron chelation (Phen Green SK): chelates the intramitochondrial iron
[1]; 6 min, compound at 10 μM relative to ferrous sulfate
  FRAP Value6 min (μM) M ± SD: 39.51 ± 2.7 µM
[1]; 65 min, compound at 10 μM relative to ferrous sulfate
  FRAP Value65 min (μM) M ± SD: 60.61 ± 7.3 µM
[1]; compared to other tryptamine derivatives and known antioxidants
  reducing ability (Fe^3+ to Fe^2+) / antioxidant property in words: greater reducing ability
[2]; dose 1 mg kg^−1 i.p.
  protection, diclofenac induced ulcer: 22%
[2]; dose 3 mg kg^−1 i.p.
  protection, diclofenac induced ulcer: 25%
[2]; dose 5 mg kg^−1 i.p.
  protection, diclofenac induced ulcer: 42%
[2]; dose 10 mg kg^−1 i.p.
  protection, diclofenac induced ulcer: 57%
[2]; dose 20 mg kg^−1 i.p.
  protection, diclofenac induced ulcer: 72%
[2]; dose 50 mg kg^−1 i.p.
  protection, diclofenac induced ulcer: 82%
[3]
  mitochondrial superoxides (mitoSOX): restores all the NSAIDs-induced mitochondrial dysfuctions

Reference: patent US8901317B2, “Tryptamine derivatives, their preparation and their use in gastropathy” (Council of Scientific & Industrial Research, priority 2010, dated 2014)
